Reference: PMC4890880 (ACS infectious diseases, 2016)
pIC50: −log10 of the molar value. Where two headings read alike, the source gives them in different places.

Tests used:
[1] = system: HepG2-A16-CD81EGFP cells; settings: for pIC50: read-out: Tox_IC50, HepG2 cytotoxicity
[2] = system: Plasmodium berghei (Pb-Luc) exoerythrocytic-stage parasites; assay: microbe, parasite or virus in culture
[3] = system: HepG2-A16-CD81EGFP cells; assay: cells; settings: Homo sapiens; for pIC50: HepG2, read-out: Tox IC50; for inhibition at 50 µM: HepG2, read-out: Tox max inhibition (%) @ 50 uM
[4] = sheet 2nd round, maximal inhibition in dose response
[5] = 2nd round, maximal inhibition in dose series
[6] = read-out: Inhibition% @ 50 uM rep1
[7] = read-out: Inhibition% @ 50 uM rep2
[8] = read-out: PbLuc IC50, dose response, 1/3 dilutions, max conc. 10 or 50 uM, unit inferred
[9] = read-out: PbLuc max inhibition (%) @ 50 uM
[10] = HepG2, read-out: HepG2 Tox% @ 50 uM rep1
[11] = HepG2, read-out: HepG2 Tox% @ 50 uM rep2

Row | Structure (SMILES) | pIC50 ([1]; sheet 2nd round) | Tox_max_inhibition (%) [1, 4] | inhibition at 50 µM [2, 6] | inhibition at 50 µM [2, 7] | cytotoxicity at 50 µM [3, 10] | also measured
1 | CO[C@@H]1CN(C)C(=O)c2ccc(NC(=O)Nc3ccccc3F)cc2OC[C@@H](C)N(Cc2ccccc2F)C[C@H]1C [BRD-K00229958-001-01-0] | < 5.00 | 7% | – | – | – | –
2 | COc1ccccc1CN1C[C@@H](C)[C@H](OC)CN(C)C(=O)c2ccc(NC(=O)Nc3ccccc3OC)cc2OC[C@H]1C [BRD-K01898236-001-01-5] | – | – | – | – | – | Tox_max_inhibition (%) [1, 5]: 9%; pIC50 ([1]; 2nd round, unit inferred): < 5.00
3 | COc1ccc2c3c([nH]c2c1)[C@H](CO)N(C(C)=O)CC31CN(Cc2ccccc2Cl)C1 [BRD-K02242562-001-01-9] | < 5.00 | 3.51% | – | – | – | –
4 | CCCN1C[C@H](C)[C@@H](OC)CN(C)C(=O)c2cc(NC(=O)Nc3cccc(F)c3)ccc2OC[C@H]1C [BRD-K02315086-001-01-0] | < 5.00 | 10% | – | – | – | –
5 | COc1ccc(S(=O)(=O)Nc2ccc3c(c2)C(=O)N([C@H](C)CO)C[C@@H](C)[C@H](CN(C)Cc2ccc(C(F)(F)F)cc2)OCCCC[C@@H](C)O3)cc1 [BRD-K02689416-001-01-9] | < 5.00 | 12% | – | – | – | –
6 | COc1cccc(S(=O)(=O)N2CCCCN3[C@@H](CO)[C@@H](c4ccc(C#CCC(C)C)cc4)[C@@H]3C2)c1 [BRD-K03006541-001-01-3] | – | – | – | – | – | pIC50 ([1]; sheet "2nd round"): < 5.00; Tox_max_inhibition (%) ([1]; sheet "2nd round"): 5%
7 | COc1cccc(-c2cccc(-c3nc(C(=O)NCc4ccc(Oc5ccccc5)cc4)cc4c3[C@@H](CCO)N([S+]([O-])C(C)(C)C)C4)c2)c1 (stereo partly drawn) [BRD-K03403405-001-03-3] | < 5.00 | 6% | – | – | – | –
8 | COc1ccc(C#Cc2ccc3c(c2)O[C@@H](CN(C)C(=O)Nc2cccc(OC)c2)[C@@H](C)CN([C@H](C)CO)S3(=O)=O)cc1 [BRD-K04089243-001-01-9] | < 5.00 | 2.28% | – | – | – | –
9 | C[C@@H]1CN([C@H](C)CO)C(=O)c2c(c3ccccc3n2C)-c2ccccc2CO[C@@H]1CN(C)S(=O)(=O)c1ccc([N+](=O)[O-])cc1 [BRD-K04605557-001-01-2] | < 5.00 | 13% | – | – | – | –
10 | CS(=O)(=O)N1[C@H](C#N)[C@H](c2ccc(C#Cc3cccc(F)c3)cc2)[C@H]1CO [BRD-K05470326-001-01-0] | – | – | – | – | – | pIC50 ([1]; sheet "2nd round"): < 5.00; Tox_max_inhibition (%) ([1]; sheet "2nd round"): 10%
11 | C[C@@H]1CCCCO[C@H](CN(C)S(=O)(=O)c2ccccc2)[C@@H](C)CN([C@H](C)CO)C(=O)c2cc(NC(=O)Nc3ccc4c(c3)OCO4)ccc2O1 [BRD-K06373569-001-01-1] | – | – | – | – | – | pIC50 ([1]; sheet "2nd round"): < 5.00; Tox_max_inhibition (%) ([1]; sheet "2nd round"): 14%
12 | COc1ccc2c3c(n(C)c2c1)[C@@H](CO)N(Cc1ccc2c(c1)OCO2)CC31CN(C(=O)c2ccc3c(c2)OCO3)C1 [BRD-K07064121-001-01-6] | – | – | – | – | – | pIC50 ([1]; sheet "2nd round"): < 5.00; Tox_max_inhibition (%) ([1]; sheet "2nd round"): 18%
13 | COc1ccc2c3c([nH]c2c1)[C@H](CO)N(C(C)=O)CC31CCN(C(=O)Nc2ccc(F)cc2F)CC1 [BRD-K07378992-001-01-6] | – | – | – | – | – | pIC50 ([1]; sheet "2nd round"): < 5.00; Tox_max_inhibition (%) ([1]; sheet "2nd round"): 7%
14 | CCCNC(=O)N1[C@H](CO)[C@H](c2ccc(C#Cc3cccc(F)c3)cc2)[C@@H]1C#N [BRD-K10089781-004-02-1] | < 5.00 | 13% | – | – | – | –
15 | C[C@H](CO)N1C[C@H](C)[C@H](CN(C)S(=O)(=O)c2ccc(C(F)(F)F)cc2)OCc2ccccc2-c2c(n(C)c3ccccc23)C1=O [BRD-K10380905-001-01-3] | < 5.00 | 20% | – | – | – | –
16 | C/C=C/c1ccc([C@H]2[C@@H](CO)N(C(=O)Nc3ccccc3F)[C@H]2C#N)cc1 [BRD-K12121340-001-01-2] | – | – | – | – | – | Tox_max_inhibition (%) [1, 5]: 9%; pIC50 ([1]; 2nd round, unit inferred): < 5.00
17 | COc1ccc(C(=O)N2C[C@@H]3[C@H](c4ccccc42)[C@H](CO)N3C(=O)Cc2ccccn2)cc1 [BRD-K13582094-001-01-2] | < 5.00 | 4% | – | – | – | –
18 | CC(C)(C)[S@+]([O-])N1Cc2cc(C(=O)NCC(F)(F)F)nc(-c3cccc(-c4cccc(F)c4)c3)c2[C@@H]1CCO [BRD-K14002526-001-01-8] | – | – | – | – | – | pIC50 ([1]; sheet "2nd round"): < 5.00; Tox_max_inhibition (%) ([1]; sheet "2nd round"): 37%
19 | COc1ccc(-c2ccc([C@H]3[C@@H](C#N)N(C(=O)NC(C)C)[C@H]3CO)cc2)cc1 [BRD-K15519105-001-01-9] | – | – | – | – | – | pIC50 ([1]; sheet "2nd round"): < 5.00; Tox_max_inhibition (%) ([1]; sheet "2nd round"): 38%
20 | COc1ccccc1NC(=O)N1C[C@@H]2N[C@H](C1)C2c1ccc(/C=C/c2ccccc2)cc1 (stereo partly drawn) [BRD-K16425675-019-01-0] | < 5.00 | 9% | – | – | – | –
21 | O=C(C[C@@H]1C[C@@H]2c3cc(NC(=O)c4ccc5c(c4)OCO5)ccc3O[C@@H]2[C@@H](CO)O1)NCc1ccc(Oc2ccccc2)cc1 [BRD-K16956545-001-01-0] | – | – | – | – | – | pIC50 ([1]; sheet "2nd round"): < 5.00; Tox_max_inhibition (%) ([1]; sheet "2nd round"): 5%

Row | Structure (SMILES) | pIC50 ([1]; sheet 2nd round) | Tox_max_inhibition (%) [1, 4] | inhibition at 50 µM [2, 6] | inhibition at 50 µM [2, 7] | cytotoxicity at 50 µM [3, 10] | also measured
22 | CS(=O)(=O)N1C[C@@H]2N[C@H](C1)C2c1ccc(-c2ccccc2)cc1 (stereo partly drawn) [BRD-K16971439-019-01-0] | < 5.00 | 5% | – | – | – | –
23 | CN1c2ccc(C#Cc3cccnc3)cc2[C@@H]2[C@@H](CCN2C(=O)c2cccc(F)c2)[C@@H]1CO [BRD-K18296007-001-01-0] | – | – | – | – | – | Tox_max_inhibition (%) [1, 5]: 14%; pIC50 ([1]; 2nd round, unit inferred): < 5.00
24 | CCCNC(=O)N1[C@H](C#N)[C@H](c2ccccc2-c2ccc(OC)cc2)[C@@H]1CO [BRD-K19492647-001-01-0] | – | – | – | – | – | Tox_max_inhibition (%) [1, 5]: 9%; pIC50 ([1]; 2nd round, unit inferred): < 5.00
25 | CC(C)(C)[S+]([O-])N1Cc2cc(C(=O)NCc3ccc4c(c3)OCO4)nc(-c3cccc(-c4cc5ccccc5o4)c3)c2[C@H]1CCO (stereo partly drawn) [BRD-K19560511-001-03-3] | – | – | – | – | – | Tox_max_inhibition (%) [1, 5]: 12%; pIC50 ([1]; 2nd round, unit inferred): < 5.00
26 | COc1ccc2c3c(n(C)c2c1)[C@H](CO)N(Cc1ccc2c(c1)OCO2)CC31CN(C(=O)c2ccc3c(c2)OCO3)C1 [BRD-K24711160-001-01-3] | < 5.00 | 3% | – | – | – | –
27 | O=C(Nc1cc(F)ccc1F)N1CCCCN2[C@H](CO)[C@H](c3ccc(C4=CCCCC4)cc3)[C@@H]2C1 [BRD-K26542939-001-01-0] | < 5.00 | 16% | – | – | – | –
28 | COc1ccccc1S(=O)(=O)N(C)C[C@@H]1Oc2cc(/C=C/c3ccccc3)ccc2S(=O)(=O)N([C@H](C)CO)C[C@H]1C [BRD-K26611181-001-01-8] | < 5.00 | 33% | – | – | – | –
29 | COc1ccc(C(=O)NC(c2ccc(Cl)cc2Cl)c2cc(Cl)c3cccnc3c2O)cc1 (stereo not drawn) [MMV666054] | – | – | 100% | 102% | 98% | pIC50 [2, 8]: 5.80; inhibition at 50 µM [2, 9]: 101%; pIC50 [3]: 4.90; inhibition at 50 µM [3]: 88%
30 | Cc1ccc2cc3c(N)c4c(C)ccc(C)c4nc3nc2c1 [MMV666079] | – | – | 103% | 104% | 97% | pIC50 ([2]; read-out: PbLuc IC50, dose response, unit inferred): 4.50; inhibition at 50 µM [2, 9]: 74%; pIC50 [3]: < 4.30; inhibition at 50 µM [3]: 12%
31 | O=C(NC(c1ccccc1)c1ccc2cccnc2c1O)c1ccccc1 (stereo not drawn) [MMV666080] | – | – | 101% | 102% | 92% | pIC50 [2, 8]: 5.81; inhibition at 50 µM [2, 9]: 101%; cytotoxicity at 50 µM [3, 11]: 93%; pIC50 [3]: 5.40; inhibition at 50 µM [3]: 84%
32 | C=C(C)CCC(C)N1CCC(N2CCC(C(=O)NCCc3ccccc3)CC2)CC1 (stereo not drawn) [MMV666110] | – | – | 101% | 99% | 91% | cytotoxicity at 50 µM [3, 11]: 97%
33 | CC(=O)c1ccc(NC(=O)CSc2nc(-c3ccccc3Cl)ns2)cc1 [MMV666124] | – | – | 104% | 104% | 96% | –
34 | CC1=C(CC(=O)c2cccc([N+](=O)[O-])c2)C(=O)c2ccccc2C1=O [MMV666125] | – | – | 103% | 104% | 100% | pIC50 [2, 8]: 5.37; inhibition at 50 µM [2, 9]: 99%; pIC50 [3]: 4.68; inhibition at 50 µM [3]: 99%
35 | O=c1nc(C=Cc2ccc(Br)cc2)oc2ccccc12 [MMV666599] | – | – | 102% | 103% | 70% | –
36 | COc1cc(C(=O)ON=C(N)Cc2cccc3ccccc23)cc(OC)c1OC [MMV666687] | – | – | 102% | 103% | 100% | pIC50 [2, 8]: 4.90; inhibition at 50 µM [2, 9]: 100%; pIC50 [3]: 4.77; inhibition at 50 µM [3]: 100%
37 | Cc1cc(C=C2SC(=Nc3ccccc3)N(C3CCCC3)C2=O)c(C)n1-c1ccc(Cl)cc1 [MMV666688] | – | – | 14% | 0.839% | -4.47% | cytotoxicity at 50 µM [3, 11]: -11%
38 | COc1ccc(Nc2nc(NN=Cc3ccc(O)cc3)nc(Nc3ccc([N+](=O)[O-])cc3)n2)cc1 [MMV666689] | – | – | 98% | 98% | 97% | pIC50 [2, 8]: 4.80; inhibition at 50 µM [2, 9]: 95%; pIC50 [3]: 4.33; inhibition at 50 µM [3]: 73%
39 | COc1ccc(CCn2c(=N)c(C(=O)NCc3cccnc3)cc3c(=O)n4cccc(C)c4nc32)cc1 [MMV667488] | – | – | 81% | 83% | -0.0644% | –
40 | COc1ccc(C2c3ccc4ccccc4c3Oc3ncn(CCCn4ccnc4)c(=N)c32)cc1OC (stereo not drawn) [MMV667490] | – | – | 104% | 104% | 102% | –
41 | COc1ccc(C2c3ccc4ccccc4c3Oc3ncn(CCCN(C)C)c(=N)c32)cc1 (stereo not drawn) [MMV667491] | – | – | 103% | 103% | 99% | pIC50 [2, 8]: 5.40; inhibition at 50 µM [2, 9]: 94%; pIC50 [3]: 4.97; inhibition at 50 µM [3]: 93%
42 | CN(N=O)C1=C(NC2CCCCC2)C(=O)c2ccccc2C1=O [MMV667492] | – | – | 103% | 104% | 98% | –
